The source of these data is US7767665B2, “1,3-benzothiazinone derivatives and use thereof” (Takeda Pharmaceutical Company Limited, priority 2001, dated 2010).

In data set [1] the test system is primary heart muscle cells from newborn rats. The data set can be described thus: Inhibitory activity on heart muscle cell apoptosis (serum-free culture, viable cell number by WST-8). The format is cell-based, Wister rats. Particulars: Rattus norvegicus, 96 h; mean of three independent experiments; concentration required to increase the mean viable cell number by 50% as compared with that in the absence of test compounds; serum-free Medium 199, 4 days. An excerpt:
Inhibitory Activity on Heart Muscle Cell Apoptosis
Newborn rats (within 1 day afterbirth) were obtained from pregnant Wister rats purchased from Charles River, anesthetized under ether, and sterilized with 70% ethanol, and then their hearts were excised with tweezers. The excised hearts were washed with a phosphate-buffered physiological saline (T900; Takara) and cut into pieces with surgical scissors. These tissue pieces were washed 4 to 5 times with a phosphate-buffered physiological saline to remove a majority of blood-derived non-heart muscle cells. To the tissue pieces derived from 10 newborns, 5 ml of enzyme solution (1.25 mg trypsin (Difco) and 0.25 mg collagenase (Sigma) per ml of phosphate-buffered saline (PBS)) was added and the mixture was stirred with a stirrer at 37° C. for 15 minutes. Another 2.5 ml enzyme solution was then added twice repeatedly at a 15-minutes interval. Then, Medium 199 (Gibco) containing 10% fetal calf serum (Biowiker) was added in a half volume of the enzyme solution to terminate the enzyme reaction. The cells were filtered through a Cell Strainer (Falcon) and then centrifuged at 400×g for 5 minutes, whereby the cells were collected.
The cells thus collected from 10 newborns were suspended in 50 ml Medium 199 containing 10% fetal calf serum, plated onto 100 mm Petri dishes (Iwaki) in a volume of 10 ml/dish and cultured for 1 hour in a CO2 incubator set at 5% CO2 and 37° C. The cells were then recovered, filtered through a Cell Strainer and centrifuged at 400×g for 5 minutes to collect the primary heart muscle cells derived from newborn rats.
Then, the heart muscle cells from 10 newborn rats were suspended in 2 ml low-isotonic solution (prepared by dissolving 8.29 g NH4Cl, 1.0 g KHCO3, 37 mg EDTA/2Na (ethylenediaminetetraacetic acid disodium) (Dojindo) in 1 L of water) and left for 3 minutes to disrupt erythrocytes. After 10 ml Medium 199 containing 10% fetal calf serum was added thereto, the primary heart muscle cells from newborn rats were collected by centrifugation at 400×g for 5 minutes. The cells were suspended in Medium 199 containing 10% fetal calf serum and then filtered through a cell strainer. After 0.3% trypan blue was added to, and mildly mixed with, an aliquot of the resulting cell suspension, the number of heart muscle cells was counted on an erythrocyte counting plate.
The primary heart muscle cells from newborn rats were suspended at a density of 3×10^6 cells/ml in Medium 199 containing 10% fetal calf serum, put onto a 96-well plate in a volume of 0.1 ml/well, and then cultured in a CO2 incubator set at 5% CO2 and 37° C. After the plate was stirred with a micromixer (Taiyo Kagaku Kogyo), the medium was exchanged 3 times with serum-free Medium 199, and then test compounds were added thereto. The cells were cultured for additional 4 days to induce apoptosis. Then, fetal calf serum was added thereto at a concentration of 10%, and the cells were further cultured for about 17 hours in a CO2 incubator set at 5% CO2 and 37° C. Finally, the number of viable cells was determined with Cell Counting Kit (Dojindo) using WST-8 (2-(2-methoxy-4-nitrophenyl)-3-(4-nitrophenyl)-5-(2,4-disulfophenyl)-2H-tetrazolium, monosodium salt) as the coloring substrate to determine the inhibition of the heart muscle cell apoptosis.
The above-mentioned experiment was triplicated in an independent manner.
The Mean minimal effective concentration (±SD) was shown for each test compound (Compounds 1 to 5 obtained in Reference Examples) in Table 1. In Table 1, the minimal effective concentration is defined as the concentration required to increase the mean viable cell number by 50% as compared with that in the absence of test compounds.
(In general: Tetrazolium dyes change colour on reduction, which living cells bring about.)

Structures are written as SMILES. Where a name gives a salt, the structure may show the parent alone.

`O=c1nc(-c2cnccn2)sc2ccccc12` [Example 7, 2-Pyrazinyl-4H-1,3-benzothiazine-4-one] returned a melting point of 240.7 to 241.7 °C. The molecule further had a minimal effective concentration in data set [1] of 0.021 µM.
Regarding `O=c1nc(-c2ccccn2)sc2cc(Cl)ccc12` [Example 10, 7-Chloro-2-(2-pyridyl)-4H-1,3-benzothiazine-4-one], the melting point fell in the range of 245.3 to 245.6 °C. This molecule also gave a minimal effective concentration in data set [1] of 0.023 µM.
In turn, `O=c1nc(-c2ccccn2)sc2cc(F)ccc12` [Example 19, 7-Fluoro-2-(2-pyridyl)-4H-1,3-benzothiazine-4-one] showed a melting point of 250 to 250.2 °C. The minimal effective concentration in data set [1] is 0.025 µM.
For `O=c1nc(-c2ccccn2)sc2ccc(F)cc12` [Example 20, 6-Fluoro-2-(2-pyridyl)-4H-1,3-benzothiazine-4-one] the same measures were 239.9 to 240.4 °C and 0.038 µM.
In the case of `O=c1nc(-c2ccccn2)sc2cccc(F)c12` [Example 21, 5-Fluoro-2-(2-pyridyl)-4H-1,3-benzothiazine-4-one], the melting point is 256.5 to 257.2 °C. Further, the minimal effective concentration in data set [1] came out at 0.03 µM.
In data set [1], `COC(=O)c1ccc(-c2nc(=O)c3ccccc3s2)nc1` [Example 28, Methyl 6-(4-oxo-4H-1,3-benzothiazin-2-yl)nicotinate] returned a minimal effective concentration of 0.025 µM.
`Cc1ccnc(-c2nc(=O)c3ccc(Cl)cc3s2)c1` [Example 29, 7-Chloro-2-(4-methyl-2-pyridyl)-4H-1,3-benzothiazine-4-one] returned a melting point of 246.2 to 246.7 °C. The molecule also gave a minimal effective concentration in data set [1] of 0.035 µM.
Take `O=c1nc(-c2cnccn2)sc2cc(Cl)ccc12` [Example 30, 7-Chloro-2-(2-pyrazyl)-4H-1,3-benzothiazine-4-one]: the melting point was 240.6 to 240.9 °C. This molecule had a minimal effective concentration in data set [1] of 0.012 µM.
Turning to `CCCNC(=O)c1ccc(-c2nc(=O)c3ccccc3s2)nc1` [Example 37, 6-(4-Oxo-4H-1,3-benzothiazin-2-yl)-N-propylnicotinamide], the melting point lay within 268 to 268.6 °C. In addition, the minimal effective concentration in data set [1] stood at 0.037 µM.
The molecule `NC(=O)c1cccc(-c2nc(=O)c3ccccc3s2)n1` [Example 38, 6-(4-Oxo-4H-1,3-benzothiazin-2-yl)-2-pyridinecarboxamide] showed a melting point of 294.6 to 294.9 °C. In data set [1], the minimal effective concentration was 0.013 µM.
With `Cc1ccc2c(=O)nc(-c3ccccn3)sc2c1` [Example 39, 7-Methyl-2-(2-pyridyl)-4H-1,3-benzothiazine-4-one], the melting point fell in the range of 225 to 225.2 °C. In addition, the minimal effective concentration in data set [1] stood at 0.037 µM.
For `O=c1nc(-c2cccc(CO)n2)sc2ccccc12` [Example 40, 2-[6-(Hydroxymethyl)-2-pyridyl]-4H-1,3-benzothiazine-4-one] the same measures were 208.2 to 208.7 °C and 0.044 µM.
For `CSc1cccc(-c2nc(=O)c3ccccc3s2)n1` [Example 43, 2-(6-Methylthio-2-pyridyl)-4H-1,3-benzothiazine-4-one] the same measures were 207.2 to 207.8 °C and 0.053 µM.
In turn, `O=c1nc(-c2ccc(CO)cn2)sc2ccccc12` [Example 48, 2-[5-(hydroxymethyl)-2-pyridyl]-4H-1,3-benzothiazine-4-one] registered a melting point of 246.9 to 247.9 °C. Moreover, the minimal effective concentration in data set [1] is 0.043 µM.
In the same order, the values of `O=c1nc(-c2ccc(C(F)(F)F)cn2)sc2ccccc12` [Example 49, 2-[5-(trifluoromethyl)-2-pyridyl]-4H-1,3-benzothiazine-4-one] are 207.2 to 207.4 °C and 0.043 µM.
For `CCCNC(=O)c1cccc(-c2nc(=O)c3ccccc3s2)n1` [Example 50, 6-(4-Oxo-4H-1,3-benzothiazin-2-yl)-N-propyl-2-pyridinecarboxamide] the same measures were 179.7 to 181.4 °C and 0.02 µM.
Regarding `O=C(NCc1ccccc1)c1cccc(-c2nc(=O)c3ccccc3s2)n1` [Example 51, N-Benzyl-6-(4-oxo-4H-1,3-benzothiazin-2-yl)-2-pyridinecarboxamide], the melting point is 197.1 to 197.9 °C. The minimal effective concentration in data set [1] amounted to 0.034 µM.
In the same order, the values of `CCCN(C(=O)c1cccc(-c2nc(=O)c3ccccc3s2)n1)C(=O)N(C)C` [Example 52, N,N-Dimethyl-N′-[[6-(4-oxo-4H-1,3-benzothiazin-2-yl)-2-pyridyl]carbonyl]-N′-propylurea] are 190.8 to 192.4 °C and 0.01 µM.
For `CN(C)C(=O)N(Cc1ccccc1)C(=O)c1cccc(-c2nc(=O)c3ccccc3s2)n1` [Example 53, N-Benzyl-N′,N′-dimethyl-N-[[6-(4-oxo-4H-1,3-benzothiazin-2-yl)-2-pyridyl]carbonyl]-urea] the same measures were 222.2 to 224 °C and 0.032 µM.
Turning to `COc1ccc2c(=O)nc(-c3ccccn3)sc2c1` [Example 54, 7-methoxy-2-(2-pyridyl)-4H-1,3-benzothiazine-4-one], the melting point was 200 to 202.2 °C. In data set [1], this molecule returned a minimal effective concentration of 0.037 µM.
In the same order, the values of `O=c1nc(-c2cc[n+]([O-])cc2)sc2ccccc12` [Example 55] are 248.2 to 251.7 °C and 0.016 µM.
For `COc1cccc(-c2nc(=O)c3ccccc3s2)n1` [Example 56, 2-(6-Methoxy-2-pyridyl)-4H-1,3-benzothiazine-4-one] the same measures were 226 to 226.1 °C and 0.039 µM.
In the same order, the values of `O=c1nc(-c2cccc(OCc3ccccc3)n2)sc2ccccc12` [Example 57, 2-[6-(Benzyloxy)-2-pyridyl]-4H-1,3-benzothiazine-4-one] are 240.9 to 241 °C and 0.033 µM.
The molecule `CCCOc1cccc(-c2nc(=O)c3ccccc3s2)n1` [Example 58, 2-(6-Propoxy-2-pyridyl)-4H-1,3-benzothiazine-4-one] gave a melting point of 138.3 to 140 °C. The molecule also displayed a minimal effective concentration in data set [1] of 0.091 µM.
For `CCC[S+]([O-])c1cccc(-c2nc(=O)c3ccccc3s2)n1` (stereo not shown) [Example 60, 2-(6-Propylsulfinyl-2-pyridyl)-4H-1,3-benzothiazine-4-one] the same measures were 174.8 to 175.4 °C and 0.019 µM.
For `CCCS(=O)(=O)c1cccc(-c2nc(=O)c3ccccc3s2)n1` [Example 61, 2-(6-Propylsulfonyl-2-pyridyl)-4H-1,3-benzothiazine-4-one] the same measures were 173.8 to 174.5 °C and 0.01 µM.
The molecule `Cc1ccc([S+]([O-])c2cccc(-c3nc(=O)c4ccccc4s3)n2)cc1` (stereo not shown) [Example 63, 2-{6-[(4-Methylphenyl)sulfinyl]-2-pyridyl}-4H-1,3-benzothiazine-4-one] yielded a melting point of 228 to 228.2 °C. This molecule gave a minimal effective concentration in data set [1] of 0.046 µM.
For `Cc1ccc(S(=O)(=O)c2cccc(-c3nc(=O)c4ccccc4s3)n2)cc1` [Example 64, 2-{6-[(4-Methylphenyl)sulfonyl]-2-pyridyl}-4H-1,3-benzothiazine-4-one] the same measures were 219.6 °C (dec.) and 0.052 µM.
`COCOCc1cccc(-c2nc(=O)c3ccccc3s2)n1` [Example 65, 2-[(6-Methoxymethoxymethyl)-2-pyridyl]-4H-1,3-benzothiazine-4-one] registered a melting point of 159.6 to 159.8 °C. Besides, the minimal effective concentration in data set [1] worked out at 0.045 µM.
In turn, `NCCCCCCNC(=O)c1cccc(-c2nc(=O)c3ccccc3s2)n1` [Example 107, N-(6-Aminohexyl)-6-(4-oxo-4H-1,3-benzothiazin-2-yl)-2-pyridinecarboxamide hydrochloride] returned a minimal effective concentration in data set [1] of 0.012 µM.

One may read the melting point as the temperature of the solid-liquid transition. For orientation: minimal effective concentration means the smallest amount tested that counted as effective.
